Measured values: patent US8927717B1, “Thiochromeno[2,3-c]quinolin-12-one derivatives, preparation method and application thereof” (National Defense Medical Center, priority 2014, dated 2015)
pIC50: −log10 of the molar value.

Assays:
[1] = target: T1, TOP II (Topoisomerase II) (Homo sapiens, UniProt P11388); experiment: TOP II-catalyzed relaxation of plasmid DNA assay; type: biochemical
T1 construct: purchased TopoGEN TG-2000H-1
Experimental: We also performed TOP II-catalyzed relaxation of plasmid DNA assays (FIG. 5-7) to evaluate if compounds could inhibit TOP II. […] The IC50 value of compounds 7, N7, N8, N14, N15, N18, and N19 were about 10, 10, 1, 10, 5, 1, and 1 μM, respectively (detect by TopoGEN TG2005H, TG-2000H-1).

CCRF-CEM = type: cell-based; conditions: Leukemia; 10^−5 molar; 48 hours; SRB
HL-60(TB) = type: cell-based; conditions: Leukemia; 10^−5 molar; 48 hours; SRB
K-562 = type: cell-based; conditions: Leukemia; 10^−5 molar; 48 hours; SRB
MOLT-4 = type: cell-based; conditions: Leukemia; 10^−5 molar; 48 hours; SRB
RPMI-8226 = type: cell-based; conditions: Leukemia; 10^−5 molar; 48 hours; SRB
SR = type: cell-based; conditions: Leukemia; 10^−5 molar; 48 hours; SRB
A549/ATCC = type: cell-based; conditions: Non-small cell lung cancer; 10^−5 molar; 48 hours; SRB
HOP-62 = type: cell-based; conditions: Non-small cell lung cancer; 10^−5 molar; 48 hours; SRB
HOP-92 = type: cell-based; conditions: Non-small cell lung cancer; 10^−5 molar; 48 hours; SRB
NCI-H226 = type: cell-based; conditions: Non-small cell lung cancer; 10^−5 molar; 48 hours; SRB
NCI-H23 = type: cell-based; conditions: Non-small cell lung cancer; 10^−5 molar; 48 hours; SRB
NCI-H460 = type: cell-based; conditions: Non-small cell lung cancer; 10^−5 molar; 48 hours; SRB
NCI-H522 = type: cell-based; conditions: Non-small cell lung cancer; 10^−5 molar; 48 hours; SRB
COLO 205 = type: cell-based; conditions: Colon cancer; 10^−5 molar; 48 hours; SRB
HCC-2998 = type: cell-based; conditions: Colon cancer; 10^−5 molar; 48 hours; SRB
HCT-116 = type: cell-based; conditions: Colon cancer; 10^−5 molar; 48 hours; SRB
HCT-15 = type: cell-based; conditions: Colon cancer; 10^−5 molar; 48 hours; SRB
HT29 = type: cell-based; conditions: Colon cancer; 10^−5 molar; 48 hours; SRB
KM12 = experiment: cells; type: cell-based; conditions: Colon cancer; 10^−5 molar; 48 hours; SRB
SW-620 = type: cell-based; conditions: Colon cancer; 10^−5 molar; 48 hours; SRB
SF-268 = type: cell-based; conditions: CNS cancer; 10^−5 molar; 48 hours; SRB
SF-295 = type: cell-based; conditions: CNS cancer; 10^−5 molar; 48 hours; SRB
SF-539 = type: cell-based; conditions: CNS cancer; 10^−5 molar; 48 hours; SRB
SNB-19 = type: cell-based; conditions: CNS cancer; 10^−5 molar; 48 hours; SRB
SNB-75 = type: cell-based; conditions: CNS cancer; 10^−5 molar; 48 hours; SRB
U251 = type: cell-based; conditions: CNS cancer; 10^−5 molar; 48 hours; SRB
LOX IMVI = type: cell-based; conditions: Melanoma; 10^−5 molar; 48 hours; SRB
MALME-3M = type: cell-based; conditions: Melanoma; 10^−5 molar; 48 hours; SRB
M14 = type: cell-based; conditions: Melanoma; 10^−5 molar; 48 hours; SRB
MDA-MB-435 = type: cell-based; conditions: Melanoma; 10^−5 molar; 48 hours; SRB
SK-MEL-2 = type: cell-based; conditions: Melanoma; 10^−5 molar; 48 hours; SRB
SK-MEL-28 = type: cell-based; conditions: Melanoma; 10^−5 molar; 48 hours; SRB
SK-MEL-5 = type: cell-based; conditions: Melanoma; 10^−5 molar; 48 hours; SRB
UACC-257 = type: cell-based; conditions: Melanoma; 10^−5 molar; 48 hours; SRB
UACC-62 = type: cell-based; conditions: Melanoma; 10^−5 molar; 48 hours; SRB
IGROV1 = type: cell-based; conditions: Ovarian cancer; 10^−5 molar; 48 hours; SRB
OVCAR-3 = type: cell-based; conditions: Ovarian cancer; 10^−5 molar; 48 hours; SRB
OVCAR-4 = type: cell-based; conditions: Ovarian cancer; 10^−5 molar; 48 hours; SRB
OVCAR-5 = type: cell-based; conditions: Ovarian cancer; 10^−5 molar; 48 hours; SRB
OVCAR-8 = type: cell-based; conditions: Ovarian cancer; 10^−5 molar; 48 hours; SRB
NCI/ADR-RES = type: cell-based; conditions: Ovarian cancer; 10^−5 molar; 48 hours; SRB
SK-OV-3 = type: cell-based; conditions: Ovarian cancer; 10^−5 molar; 48 hours; SRB
786-0 = type: cell-based; conditions: Renal cancer; 10^−5 molar; 48 hours; SRB
A498 = type: cell-based; conditions: Renal cancer; 10^−5 molar; 48 hours; SRB
ACHN = type: cell-based; conditions: Renal cancer; 10^−5 molar; 48 hours; SRB
CAKI-1 = type: cell-based; conditions: Renal cancer; 10^−5 molar; 48 hours; SRB
RXF 393 = type: cell-based; conditions: Renal cancer; 10^−5 molar; 48 hours; SRB
SN12C = type: cell-based; conditions: Renal cancer; 10^−5 molar; 48 hours; SRB
TK-10 = type: cell-based; conditions: Renal cancer; 10^−5 molar; 48 hours; SRB
UO-31 = type: cell-based; conditions: Renal cancer; 10^−5 molar; 48 hours; SRB
PC-3 = type: cell-based; conditions: Prostate cancer; 10^−5 molar; 48 hours; SRB
DU-145 = type: cell-based; conditions: Prostate cancer; 10^−5 molar; 48 hours; SRB
MCF7 = type: cell-based; conditions: Breast cancer; 10^−5 molar; 48 hours; SRB
MDA-MB-231/ATCC = type: cell-based; conditions: Breast cancer; 10^−5 molar; 48 hours; SRB
HS 578T = type: cell-based; conditions: Breast cancer; 10^−5 molar; 48 hours; SRB
BT-549 = type: cell-based; conditions: Breast cancer; 10^−5 molar; 48 hours; SRB
T-47D = type: cell-based; conditions: Breast cancer; 10^−5 molar; 48 hours; SRB
MDA-MB-486 = type: cell-based; conditions: Breast cancer; 10^−5 molar; 48 hours; SRB
60 cancer cell lines = experiment: NCI 60-cell screen, SRB, whole panel (mean, delta, range); type: cell-based; conditions: 10^−5 molar, 48 hours, SRB

T1 sequence (P11388 whole entry): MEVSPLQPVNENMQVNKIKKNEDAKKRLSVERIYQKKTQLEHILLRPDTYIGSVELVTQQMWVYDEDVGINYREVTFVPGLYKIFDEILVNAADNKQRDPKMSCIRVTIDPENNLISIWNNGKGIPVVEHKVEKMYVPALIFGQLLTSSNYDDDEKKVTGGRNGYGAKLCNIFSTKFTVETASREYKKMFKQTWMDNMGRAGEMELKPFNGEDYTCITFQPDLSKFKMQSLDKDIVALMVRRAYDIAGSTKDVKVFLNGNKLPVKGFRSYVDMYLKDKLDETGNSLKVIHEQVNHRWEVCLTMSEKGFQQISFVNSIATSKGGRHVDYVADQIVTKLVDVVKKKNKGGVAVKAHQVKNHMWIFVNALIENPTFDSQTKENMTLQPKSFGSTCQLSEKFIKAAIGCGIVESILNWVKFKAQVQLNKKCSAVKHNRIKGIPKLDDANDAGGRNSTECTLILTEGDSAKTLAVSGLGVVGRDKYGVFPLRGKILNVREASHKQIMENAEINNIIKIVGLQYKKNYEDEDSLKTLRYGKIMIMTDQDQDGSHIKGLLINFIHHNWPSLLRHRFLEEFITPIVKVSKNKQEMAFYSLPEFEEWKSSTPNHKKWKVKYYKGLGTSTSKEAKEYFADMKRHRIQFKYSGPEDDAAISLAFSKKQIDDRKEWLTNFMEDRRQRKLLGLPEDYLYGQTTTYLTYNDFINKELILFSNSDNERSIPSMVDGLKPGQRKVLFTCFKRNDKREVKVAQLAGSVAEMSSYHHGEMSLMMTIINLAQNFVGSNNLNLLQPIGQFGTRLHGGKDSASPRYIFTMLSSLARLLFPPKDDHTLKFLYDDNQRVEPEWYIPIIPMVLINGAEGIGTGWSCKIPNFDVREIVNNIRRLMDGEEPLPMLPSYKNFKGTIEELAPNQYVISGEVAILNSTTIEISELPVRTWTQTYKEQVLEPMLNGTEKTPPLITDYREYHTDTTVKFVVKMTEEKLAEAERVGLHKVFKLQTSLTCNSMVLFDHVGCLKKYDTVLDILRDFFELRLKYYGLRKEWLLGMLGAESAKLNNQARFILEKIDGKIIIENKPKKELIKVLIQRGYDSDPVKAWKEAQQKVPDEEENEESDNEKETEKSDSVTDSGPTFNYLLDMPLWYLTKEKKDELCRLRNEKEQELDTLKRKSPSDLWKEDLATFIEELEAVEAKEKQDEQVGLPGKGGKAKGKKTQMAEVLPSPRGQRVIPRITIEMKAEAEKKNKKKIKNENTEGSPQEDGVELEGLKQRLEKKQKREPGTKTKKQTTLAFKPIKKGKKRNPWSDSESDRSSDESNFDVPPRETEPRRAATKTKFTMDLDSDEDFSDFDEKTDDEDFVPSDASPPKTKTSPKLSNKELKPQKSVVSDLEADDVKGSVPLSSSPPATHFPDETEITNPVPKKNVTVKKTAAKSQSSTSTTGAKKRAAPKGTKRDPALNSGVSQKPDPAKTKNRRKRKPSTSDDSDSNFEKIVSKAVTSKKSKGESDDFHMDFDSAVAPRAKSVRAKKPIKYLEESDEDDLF

CCN(CC)CCNc1nc2ccccc2c2c(=O)c3cc(Cl)ccc3sc12 [Compound N8, 10-Chloro-6-((2-(diethylamino)ethyl)amino)-12H-thiochromeno[2,3-c]quinolin-12-one]
pIC50 ([1]; five different concentrations, TopoGEN TG2005H, TG-2000H-1, read-out: IC50 value, TOP II mediated supercoiled DNA relaxation): ~6.00
inhibitory effect in TOP II relaxation assay compared with VP-16 ([1]; primary assay at 25 and/or 50 μM): more potent inhibitory effects than the positive agent VP-16
melting point: 152 to 153 °C

O=c1c2cc(Cl)ccc2sc2c(N3CCN(Cc4ccccc4)CC3)nc3ccccc3c12 [Compound 11, 6-(4-Benzylpiperazin-1-yl)-10-chloro-12H-thiochromeno[2,3-c]quinolin-12-one]
Growth percent CCRF-CEM (CCRF-CEM): 95.42%
Growth percent HL-60(TB) (HL-60(TB)): 100.96%
Growth percent K-562 (K-562): 87.84%
Growth percent MOLT-4 (MOLT-4): 90.91%
Growth percent RPMI-8226 (RPMI-8226): 96.63%
Growth percent SR (SR): 85.15%
Growth percent A549/ATCC (A549/ATCC): 106.37%
Growth percent HOP-62 (HOP-62): 87.72%
Growth percent HOP-92 (HOP-92): 70.17%
Growth percent NCI-H226 (NCI-H226): 88.98%
Growth percent NCI-H23 (NCI-H23): 89.94%
Growth percent NCI-H460 (NCI-H460): 95.57%
Growth percent NCI-H522 (NCI-H522): 96.69%
Growth percent COLO 205 (COLO 205): 105.64%
Growth percent HCC-2998 (HCC-2998): 99.32%
Growth percent HCT-116 (HCT-116): 98.59%
Growth percent HCT-15 (HCT-15): 94.51%
Growth percent HT29 (HT29): 102.71%
Growth percent KM12 (KM12): 107.75%
Growth percent SW-620 (SW-620): 93.08%
Growth percent SF-268 (SF-268): 100.42%
Growth percent SF-295 (SF-295): 94.34%
Growth percent SF-539 (SF-539): 108.56%
Growth percent SNB-19 (SNB-19): 95.52%
Growth percent SNB-75 (SNB-75): 82.62%
Growth percent U251 (U251): 96.69%
Growth percent LOX IMVI (LOX IMVI): 94.22%
Growth percent MALME-3M (MALME-3M): 112.36%
Growth percent M14 (M14): 93.00%
Growth percent MDA-MB-435 (MDA-MB-435): 96.99%
Growth percent SK-MEL-2 (SK-MEL-2): 107.37%
Growth percent SK-MEL-28 (SK-MEL-28): 104.19%
Growth percent SK-MEL-5 (SK-MEL-5): 98.38%
Growth percent UACC-257 (UACC-257): 95.39%
Growth percent UACC-62 (UACC-62): 96.00%
Growth percent IGROV1 (IGROV1): 93.49%
Growth percent OVCAR-3 (OVCAR-3): 101.69%
Growth percent OVCAR-4 (OVCAR-4): 102.43%
Growth percent OVCAR-5 (OVCAR-5): 111.92%
Growth percent OVCAR-8 (OVCAR-8): 98.54%
Growth percent NCI/ADR-RES (NCI/ADR-RES): 98.31%
Growth percent SK-OV-3 (SK-OV-3): 94.79%
Growth percent 786-0 (786-0): 105.57%
Growth percent A498 (A498): 94.17%
Growth percent ACHN (ACHN): 96.39%
Growth percent CAKI-1 (CAKI-1): 94.03%
Growth percent RXF 393 (RXF 393): 100.71%
Growth percent SN12C (SN12C): 97.70%
Growth percent TK-10 (TK-10): 124.99%
Growth percent UO-31 (UO-31): 64.91%
Growth percent PC-3 (PC-3): 89.12%
Growth percent DU-145 (DU-145): 111.61%
Growth percent MCF7 (Table 2: MCF) (MCF7): 68.32%
Growth percent MDA-MB-231/ATCC (MDA-MB-231/ATCC): 89.11%
Growth percent HS 578T (HS 578T): 76.42%
Growth percent BT-549 (BT-549): 114.05%
Growth percent T-47D (T-47D): 89.22%
Growth percent MDA-MB-486 (MDA-MB-486): 98.53%
Growth percent, Delta (60 cancer cell lines; delta over the cell panel): 31.28%
Growth percent, Mean (60 cancer cell lines; mean over the cell panel): 96.19%
Growth percent, Range (60 cancer cell lines; range over the cell panel): 60.08%
melting point: 191 to 193 °C
